The nature of this data set: activity coefficient (dimensionless); of the first substance listed, at infinite dilution; xn = mol fraction of the nth substance listed. The settings on record: Liquid, Chromatography, x1 = 0.

SMILES strings stand for the structures. Numbers after ± are expanded uncertainties.

With `CO` [methanol] + CCCCCCCC[N+](CCCCCCCC)(CCCCCCCC)CCCCCCCC.O=S(=O)([N-]S(=O)(=O)C(F)(F)F)C(F)(F)F, the activity coefficient turned out to be 0.65 ± 0.03 (322.85 K), 0.76 ± 0.03 (332.65 K) and 0.82 ± 0.03 (343.15 K).

With `ClC(Cl)Cl` [trichloromethane] + CCCCCCCCCC[N+](C)(C)C.O=S(=O)([N-]S(=O)(=O)C(F)(F)F)C(F)(F)F, the activity coefficient is, setting by setting: (322.85 K) 0.65 ± 0.03; (332.65 K) 0.68 ± 0.03; (343.15 K) 0.68 ± 0.03.

Turning to `C=O` [methanal] + CCCCCCCC[N+](C)(C)C.O=S(=O)([N-]S(=O)(=O)C(F)(F)F)C(F)(F)F, the activity coefficient is, setting by setting: (322.85 K) 0.1 ± 0.04; (332.65 K) 0.11 ± 0.04; (343.15 K) 0.12 ± 0.04.

Consider `C[N+](=O)[O-]` [nitromethane] + CCCCCCCC[N+](C)(C)C.O=S(=O)([N-]S(=O)(=O)C(F)(F)F)C(F)(F)F, for which the activity coefficient (322.85 K) came out at 0.6 ± 0.03, the activity coefficient (332.65 K) was 0.58 ± 0.03 and the activity coefficient (343.15 K) stood at 0.55 ± 0.03.

For the compound `Cc1ccccc1` [toluene] + CCCCCCCCCC[N+](C)(C)C.O=S(=O)([N-]S(=O)(=O)C(F)(F)F)C(F)(F)F, the activity coefficient reads like this: (322.85 K) 0.84 ± 0.03; (332.65 K) 0.89 ± 0.03; (343.15 K) 0.89 ± 0.03.

As for `CCCCCCC` [heptane] + CCCCCCCCCC[N+](C)(C)C.O=S(=O)([N-]S(=O)(=O)C(F)(F)F)C(F)(F)F, the activity coefficient is, setting by setting: (322.85 K) 5.26 ± 0.24; (332.65 K) 5.14 ± 0.23; (343.15 K) 4.92 ± 0.22.

Consider `CCC(C)=O` [butanone] + CCCCCCCC[N+](C)(C)C.O=S(=O)([N-]S(=O)(=O)C(F)(F)F)C(F)(F)F, for which the activity coefficient amounted to 0.41 ± 0.03 (322.85 K), 0.38 ± 0.03 (332.65 K) and 0.34 ± 0.04 (343.15 K).

Consider `C#CCCCCC` [1-heptyne] + CCCCCCCCCC[N+](C)(C)C.O=S(=O)([N-]S(=O)(=O)C(F)(F)F)C(F)(F)F, for which the activity coefficient runs as follows: (322.85 K) 1.95 ± 0.09; (332.65 K) 2.02 ± 0.09; (343.15 K) 1.97 ± 0.09.

Regarding `CO` [methanol] + CCCC[N+](C)(CCCC)CCCC.O=S(=O)([N-]S(=O)(=O)C(F)(F)F)C(F)(F)F, the activity coefficient runs as follows: (322.85 K) 0.96 ± 0.03; (332.65 K) 0.75 ± 0.03; (343.15 K) 0.88 ± 0.03.

Take `C#CCCCC` [1-hexyne] + CCCCCCCC[N+](C)(C)C.O=S(=O)([N-]S(=O)(=O)C(F)(F)F)C(F)(F)F: the activity coefficient is, setting by setting: (322.85 K) 1.92 ± 0.08; (332.65 K) 1.89 ± 0.08; (343.15 K) 1.82 ± 0.08.

With `C[N+](=O)[O-]` [nitromethane] + CCCCCCCC[N+](CCCCCCCC)(CCCCCCCC)CCCCCCCC.O=S(=O)([N-]S(=O)(=O)C(F)(F)F)C(F)(F)F, the activity coefficient runs as follows: (322.85 K) 0.63 ± 0.03; (332.65 K) 0.61 ± 0.03; (343.15 K) 0.59 ± 0.03.

On to `ClCCl` [dichloromethane] + CCCC[N+](C)(CCCC)CCCC.O=S(=O)([N-]S(=O)(=O)C(F)(F)F)C(F)(F)F, for which the activity coefficient turned out to be 0.66 ± 0.03 (322.85 K), 0.69 ± 0.03 (332.65 K) and 0.7 ± 0.03 (343.15 K).

With `CCC[N+](=O)[O-]` [1-nitropropane] + CCCCCCCC[N+](CCCCCCCC)(CCCCCCCC)CCCCCCCC.O=S(=O)([N-]S(=O)(=O)C(F)(F)F)C(F)(F)F, the activity coefficient was determined as 0.48 ± 0.03 (322.85 K), 0.48 ± 0.03 (332.65 K) and 0.47 ± 0.03 (343.15 K).

In the case of `CCCCCC` [hexane] + CCCCCCCCCC[N+](C)(C)C.O=S(=O)([N-]S(=O)(=O)C(F)(F)F)C(F)(F)F, the activity coefficient runs as follows: (322.85 K) 4.2 ± 0.19; (332.65 K) 4.1 ± 0.18; (343.15 K) 3.93 ± 0.17.

Take `ClC(Cl)Cl` [trichloromethane] + CCCC[N+](C)(CCCC)CCCC.O=S(=O)([N-]S(=O)(=O)C(F)(F)F)C(F)(F)F: the activity coefficient was 0.84 ± 0.03 (322.85 K), 0.87 ± 0.03 (332.65 K) and 0.88 ± 0.03 (343.15 K).

On to `ClC(Cl)Cl` [trichloromethane] + CCCCCCCC[N+](C)(C)C.O=S(=O)([N-]S(=O)(=O)C(F)(F)F)C(F)(F)F, for which the activity coefficient was determined as 0.63 ± 0.03 (322.85 K), 0.65 ± 0.03 (332.65 K) and 0.66 ± 0.03 (343.15 K).

`CC1CCCC1` [methylcyclopentane] + CCCC[N+](C)(CCCC)CCCC.O=S(=O)([N-]S(=O)(=O)C(F)(F)F)C(F)(F)F: the activity coefficient by setting is: (322.85 K) 4.75 ± 0.22; (332.65 K) 4.74 ± 0.22; (343.15 K) 4.5 ± 0.21.

As to `CCCCCCCCCCC` [undecane] + CCCCCCCC[N+](C)(C)C.O=S(=O)([N-]S(=O)(=O)C(F)(F)F)C(F)(F)F, the activity coefficient runs as follows: (322.85 K) 25.8 ± 1.2; (332.65 K) 23.7 ± 1.1; (343.15 K) 21.1 ± 0.98.

For the compound `CCCCCC` [hexane] + CCCCCCCC[N+](C)(C)C.O=S(=O)([N-]S(=O)(=O)C(F)(F)F)C(F)(F)F, the activity coefficient reads like this: (322.85 K) 6.21 ± 0.28; (332.65 K) 5.83 ± 0.27; (343.15 K) 5.36 ± 0.24.

In the case of `CCCO` [propan-1-ol] + CCCCCCCCCC[N+](C)(C)C.O=S(=O)([N-]S(=O)(=O)C(F)(F)F)C(F)(F)F, the activity coefficient reads like this: (322.85 K) 1.48 ± 0.06; (332.65 K) 1.37 ± 0.05; (343.15 K) 1.21 ± 0.04.

In the case of `c1ccsc1` [thiophene] + CCCCCCCC[N+](CCCCCCCC)(CCCCCCCC)CCCCCCCC.O=S(=O)([N-]S(=O)(=O)C(F)(F)F)C(F)(F)F, the activity coefficient came to 0.4 ± 0.03 (322.85 K), 0.4 ± 0.03 (332.65 K) and 0.41 ± 0.03 (343.15 K).

For `Cc1ccccc1` [toluene] + CCCCCCCC[N+](C)(C)C.O=S(=O)([N-]S(=O)(=O)C(F)(F)F)C(F)(F)F, the activity coefficient amounted to 0.97 ± 0.03 (322.85 K), 0.98 ± 0.03 (332.65 K) and 0.98 ± 0.03 (343.15 K).

As for `CCCCCCCCCCCC` [dodecane] + CCCCCCCC[N+](CCCCCCCC)(CCCCCCCC)CCCCCCCC.O=S(=O)([N-]S(=O)(=O)C(F)(F)F)C(F)(F)F, the activity coefficient (343.15 K) worked out at 2.72 ± 0.12.

`Cc1ccccc1C` [1,2-dimethylbenzene] + CCCCCCCC[N+](CCCCCCCC)(CCCCCCCC)CCCCCCCC.O=S(=O)([N-]S(=O)(=O)C(F)(F)F)C(F)(F)F: the activity coefficient runs as follows: (332.65 K) 0.57 ± 0.03; (343.15 K) 0.58 ± 0.03.

As to `CC#N` [acetonitrile] + CCCCCCCC[N+](CCCCCCCC)(CCCCCCCC)CCCCCCCC.O=S(=O)([N-]S(=O)(=O)C(F)(F)F)C(F)(F)F, the activity coefficient runs as follows: (322.85 K) 0.5 ± 0.03; (332.65 K) 0.49 ± 0.03; (343.15 K) 0.49 ± 0.03.

`CO` [methanol] + CCCCCCCCCC[N+](C)(C)C.O=S(=O)([N-]S(=O)(=O)C(F)(F)F)C(F)(F)F: the activity coefficient by setting is: (322.85 K) 0.79 ± 0.03; (332.65 K) 0.91 ± 0.03; (343.15 K) 0.66 ± 0.03.

Regarding `CCCCCCCCCCCC` [dodecane] + CCCCCCCC[N+](C)(C)C.O=S(=O)([N-]S(=O)(=O)C(F)(F)F)C(F)(F)F, the activity coefficient came to 33.1 ± 1.5 (322.85 K), 30.5 ± 1.4 (332.65 K) and 27.1 ± 1.3 (343.15 K).

Regarding `CCCCCC` [hexane] + CCCC[N+](C)(CCCC)CCCC.O=S(=O)([N-]S(=O)(=O)C(F)(F)F)C(F)(F)F, the activity coefficient reads like this: (322.85 K) 6.75 ± 0.31; (332.65 K) 6.75 ± 0.31; (343.15 K) 6.44 ± 0.29.

As for `CCCO` [propan-1-ol] + CCCC[N+](C)(CCCC)CCCC.O=S(=O)([N-]S(=O)(=O)C(F)(F)F)C(F)(F)F, the activity coefficient is, setting by setting: (322.85 K) 1.78 ± 0.08; (332.65 K) 1.64 ± 0.07; (343.15 K) 1.48 ± 0.06.

For `CCCCCCCCCCCC` [dodecane] + CCCCCCCCCC[N+](C)(C)C.O=S(=O)([N-]S(=O)(=O)C(F)(F)F)C(F)(F)F, the activity coefficient runs as follows: (322.85 K) 15.1 ± 0.7; (332.65 K) 14.8 ± 0.68; (343.15 K) 13.8 ± 0.63.

On to `CCCCO` [butan-1-ol] + CCCCCCCCCC[N+](C)(C)C.O=S(=O)([N-]S(=O)(=O)C(F)(F)F)C(F)(F)F, for which the activity coefficient was 1.7 ± 0.07 (322.85 K), 1.55 ± 0.06 (332.65 K) and 1.38 ± 0.05 (343.15 K).

As for `Cc1ccc(C)cc1` [1,4-dimethylbenzene] + CCCCCCCC[N+](CCCCCCCC)(CCCCCCCC)CCCCCCCC.O=S(=O)([N-]S(=O)(=O)C(F)(F)F)C(F)(F)F, the activity coefficient reads like this: (332.65 K) 0.6 ± 0.03; (343.15 K) 0.62 ± 0.03.

On to `CCC=O` [propanal] + CCCC[N+](C)(CCCC)CCCC.O=S(=O)([N-]S(=O)(=O)C(F)(F)F)C(F)(F)F, for which the activity coefficient reads like this: (322.85 K) 0.49 ± 0.03; (332.65 K) 0.49 ± 0.03; (343.15 K) 0.5 ± 0.03.

Turning to `CCCCO` [butan-1-ol] + CCCCCCCC[N+](CCCCCCCC)(CCCCCCCC)CCCCCCCC.O=S(=O)([N-]S(=O)(=O)C(F)(F)F)C(F)(F)F, the activity coefficient (322.85 K) amounted to 3.08 ± 0.14, the activity coefficient (332.65 K) was determined as 1.12 ± 0.03 and the activity coefficient (343.15 K) is 1.04 ± 0.03.

Take `Cc1ccccc1C` [1,2-dimethylbenzene] + CCCCCCCCCC[N+](C)(C)C.O=S(=O)([N-]S(=O)(=O)C(F)(F)F)C(F)(F)F: the activity coefficient runs as follows: (322.85 K) 1.03 ± 0.03; (332.65 K) 1.07 ± 0.03; (343.15 K) 1.07 ± 0.03.

As to `CCC=O` [propanal] + CCCCCCCC[N+](C)(C)C.O=S(=O)([N-]S(=O)(=O)C(F)(F)F)C(F)(F)F, the activity coefficient (322.85 K) came to 0.48 ± 0.03, the activity coefficient (332.65 K) stood at 0.47 ± 0.03 and the activity coefficient (343.15 K) was found to be 0.46 ± 0.03.

Turning to `CCc1ccccc1` [ethylbenzene] + CCCCCCCC[N+](CCCCCCCC)(CCCCCCCC)CCCCCCCC.O=S(=O)([N-]S(=O)(=O)C(F)(F)F)C(F)(F)F, the activity coefficient is, setting by setting: (322.85 K) 0.59 ± 0.03; (332.65 K) 0.6 ± 0.03; (343.15 K) 0.61 ± 0.03.

In the case of `C1CCCCC1` [cyclohexane] + CCCC[N+](C)(CCCC)CCCC.O=S(=O)([N-]S(=O)(=O)C(F)(F)F)C(F)(F)F, the activity coefficient came out at 4.74 ± 0.22 (322.85 K), 4.71 ± 0.21 (332.65 K) and 4.44 ± 0.2 (343.15 K).
